Experimental data as given in ChEMBL document CHEMBL4483862, “Open-source discovery of chemical leads for next-generation chemoprotective antimalarials” (2018).

Test system: Plasmodium berghei
Experiment: Luciferase/luciferin-expressing antifolate-resistant parasites were used to infect a culture of HepG2 cells that were pre-incubated with compounds. Infected hepatocytes emit light due to the luciferase reaction. Assay results are presented as the percent inhibition of light emission compared to control. […]
Type: functional
Settings: sporozoite; for IC90: read-out: LUCIFERASE INFECTION ASSAY - IC90

Structure (SMILES) | IC90 [µM] | other results
C=CCNc1nc(-c2ccccc2)c(C(=O)OCC)cc1C#N | > 10.7 | IC50 (HEPG2TOX_HILL_SLOPE 2.72, HEPG2TOX_R_SQUARED 0.984, PBLUC_HILL_SLOPE 4, PBLUC_R_SQUARED 0.181, read-out: LUCIFERASE INFECTION ASSAY - IC50): 6.9 µM
CC(C)c1ccc(NC(=O)c2snc3ccc(Cl)cc23)cc1 | 6.63 | IC50 (HEPG2TOX_HILL_SLOPE 2.78, HEPG2TOX_R_SQUARED 0.915, PBLUC_HILL_SLOPE 3.55, PBLUC_R_SQUARED 0.653, read-out: LUCIFERASE INFECTION ASSAY - IC50): 3.57 µM
Cc1ccc(C(=O)NN(C)c2nc3ccccc3nc2C(F)(F)F)cc1 | 8.54 | IC50 (HEPG2TOX_HILL_SLOPE 2.8, HEPG2TOX_R_SQUARED 0.955, PBLUC_HILL_SLOPE 3.11, PBLUC_R_SQUARED 0.656, read-out: LUCIFERASE INFECTION ASSAY - IC50): 4.21 µM
O=C(CSc1nnc(-c2ccco2)o1)OCc1cc(F)cc2c1OC(c1ccccc1)OC2 (configuration not stated) | 4.11 | IC50 (HEPG2TOX_HILL_SLOPE 2.76, 2.27, HEPG2TOX_R_SQUARED 0.916, 0.957, PBLUC_HILL_SLOPE 6.02, 15.8, PBLUC_R_SQUARED 0.479, 0.425, read-out: LUCIFERASE INFECTION ASSAY - IC50): 3.17 µM
Fc1ccc(-c2cs/c(=N\CC3CCCO3)n2/N=C/c2ccccc2F)cc1 (configuration not stated) | > 10 | IC50 (HEPG2TOX_HILL_SLOPE 2.73, HEPG2TOX_R_SQUARED 0.938, PBLUC_HILL_SLOPE 4.49, 0.768, PBLUC_R_SQUARED 0.141, 0.452, read-out: LUCIFERASE INFECTION ASSAY - IC50): 5.54 µM
Brc1ccc(-c2ccc(CN3CCNCC3)s2)cc1 | > 10 | IC50 (HEPG2TOX_HILL_SLOPE 2.72, HEPG2TOX_R_SQUARED 0.0418, read-out: LUCIFERASE INFECTION ASSAY - IC50): > 10 µM
CC(C)c1ccc(/C=C/C(=O)NN=c2nc[nH]c3ccccc23)cc1 | > 10 | IC50 (HEPG2TOX_HILL_SLOPE 2.75, HEPG2TOX_R_SQUARED 0.845, PBLUC_HILL_SLOPE 8.02, PBLUC_R_SQUARED 0.305, read-out: LUCIFERASE INFECTION ASSAY - IC50): 8.64 µM
CC(=O)Nc1ccc(S(=O)(=O)N2CCCc3cc(C)ccc32)cc1 | > 10 | IC50 (HEPG2TOX_HILL_SLOPE 2.72, HEPG2TOX_R_SQUARED 0.907, PBLUC_HILL_SLOPE 2.8, PBLUC_R_SQUARED 0.127, read-out: LUCIFERASE INFECTION ASSAY - IC50): 5.79 µM
O=c1c2ccccc2nnn1CSc1nc2ccccc2c(=O)n1CCC1=CCCCC1 | 9.59 | IC50 (HEPG2TOX_HILL_SLOPE 2.76, HEPG2TOX_R_SQUARED 0.854, PBLUC_HILL_SLOPE 2.95, PBLUC_R_SQUARED 0.421, read-out: LUCIFERASE INFECTION ASSAY - IC50): 4.55 µM
CC(=O)O[C@H]1CC[C@]2(C)C3CC[C@]4(C)C(C5=CC(=O)OC5)CC[C@]4(O)C3CC[C@@H]2C1 (some centres not stated) | 1.14 | IC50 (HEPG2TOX_HILL_SLOPE 2.72, HEPG2TOX_R_SQUARED 0.979, PBLUC_HILL_SLOPE 2.85, PBLUC_R_SQUARED 0.935, read-out: LUCIFERASE INFECTION ASSAY - IC50): 0.528 µM
COc1ccc(-c2c(C)nn3c(=O)cc(CSc4ccc(C)cc4)[nH]c23)cc1 | 3.91 | IC50 (HEPG2TOX_HILL_SLOPE 2.74, HEPG2TOX_R_SQUARED 0.727, PBLUC_HILL_SLOPE 9.33, PBLUC_R_SQUARED 0.653, read-out: LUCIFERASE INFECTION ASSAY - IC50): 3.09 µM
O=C(Nc1c2ccccc2nc2ccccc12)c1[nH]nc2c1CCCC2 | 4.07 | IC50 (HEPG2TOX_HILL_SLOPE 2.71, HEPG2TOX_R_SQUARED 0.934, PBLUC_HILL_SLOPE 11.2, PBLUC_R_SQUARED 0.297, read-out: LUCIFERASE INFECTION ASSAY - IC50): 3.34 µM
CCc1nc2oc3ccccc3c(=O)c2c(=O)n1CCc1ccccc1 | > 9.53 | IC50 (HEPG2TOX_HILL_SLOPE 2.79, HEPG2TOX_R_SQUARED 0.325, PBLUC_HILL_SLOPE 2.85, PBLUC_R_SQUARED 0.319, read-out: LUCIFERASE INFECTION ASSAY - IC50): 4.63 µM
Cc1oc2c(c1C(=O)NC(C)(C)C)C(=O)c1ccccc1C2=O | 4.63 | IC50 (HEPG2TOX_HILL_SLOPE 2.79, HEPG2TOX_R_SQUARED 0.986, PBLUC_HILL_SLOPE 0.957, PBLUC_R_SQUARED 0.592, read-out: LUCIFERASE INFECTION ASSAY - IC50): 0.466 µM
O=C(NNC(=O)c1cc(-c2ccc(Cl)s2)nc2ccccc12)c1cnccn1 | 1.27 | IC50 (HEPG2TOX_HILL_SLOPE 2.73, HEPG2TOX_R_SQUARED 0.802, PBLUC_HILL_SLOPE 17.7, PBLUC_R_SQUARED 0.568, read-out: LUCIFERASE INFECTION ASSAY - IC50): 1.12 µM
COc1ccc(C2=NN=C/C2=N\Nc2ccc(C(F)(F)F)cc2)cc1 | 7.39 | IC50 (HEPG2TOX_HILL_SLOPE 2.77, HEPG2TOX_R_SQUARED 0.967, PBLUC_HILL_SLOPE 4.55, PBLUC_R_SQUARED 0.276, read-out: LUCIFERASE INFECTION ASSAY - IC50): 4.56 µM

Structure (SMILES) | IC90 [µM] | other results
CC(=O)c1cccc(-c2cnc3ccc(-c4ccc(F)cc4)nn23)c1 | 4.45 | IC50 (HEPG2TOX_HILL_SLOPE 2.73, HEPG2TOX_R_SQUARED 0.88, PBLUC_HILL_SLOPE 3.37, PBLUC_R_SQUARED 0.558, read-out: LUCIFERASE INFECTION ASSAY - IC50): 2.32 µM
CC1=CC2(C)C3C(=O)N(c4ccc(OC(F)(F)F)cc4)C(=O)C3C1C1C(=O)N(c3ccc(OC(F)(F)F)cc3)C(=O)C12 (configuration not stated) | > 5.55 | IC50 (HEPG2TOX_HILL_SLOPE 2.78, HEPG2TOX_R_SQUARED 0.438, PBLUC_HILL_SLOPE 7.06, PBLUC_R_SQUARED 0.285, read-out: LUCIFERASE INFECTION ASSAY - IC50): 5.08 µM
Cc1ccc([N+](=O)[O-])cc1S(=O)(=O)Nc1ccccc1C(=O)OCC(=O)NCCC1=CCCCC1 | > 10 | IC50 (HEPG2TOX_HILL_SLOPE 2.79, HEPG2TOX_R_SQUARED 0.956, PBLUC_HILL_SLOPE 19.8, PBLUC_R_SQUARED 0.561, read-out: LUCIFERASE INFECTION ASSAY - IC50): 9.09 µM
COCc1[nH]n2c3cccc(=O)c-3nnc2c1-c1ccccc1 | 8.25 | IC50 (HEPG2TOX_HILL_SLOPE 2.72, HEPG2TOX_R_SQUARED 0.697, PBLUC_HILL_SLOPE 5.05, PBLUC_R_SQUARED 0.588, read-out: LUCIFERASE INFECTION ASSAY - IC50): 5.34 µM
Cc1ccc(COC(=O)c2cccc(S(=O)(=O)NCc3ccccc3)c2)cc1 | 4.92 | IC50 (HEPG2TOX_HILL_SLOPE 2.79, HEPG2TOX_R_SQUARED 0.991, PBLUC_HILL_SLOPE 8.82, PBLUC_R_SQUARED 0.278, read-out: LUCIFERASE INFECTION ASSAY - IC50): 3.84 µM
Fc1cccc(Nc2cc3c(cn2)ncn3Cc2ccccc2)c1 | > 10 | IC50 (HEPG2TOX_HILL_SLOPE 2.72, HEPG2TOX_R_SQUARED 0.764, PBLUC_HILL_SLOPE 2.07, PBLUC_R_SQUARED 0.581, read-out: LUCIFERASE INFECTION ASSAY - IC50): 8.26 µM
COc1ccc(NS(=O)(=O)c2cc(NC(=O)C3=NNC(=O)CC3)ccc2C)cc1 | > 10 | IC50 (HEPG2TOX_HILL_SLOPE 2.75, HEPG2TOX_R_SQUARED 0.923, PBLUC_HILL_SLOPE 2.64, PBLUC_R_SQUARED 0.0563, read-out: LUCIFERASE INFECTION ASSAY - IC50): 4.97 µM
O=C1OC(c2ccccc2)Cc2cc(C(=O)N3CCC(C(=O)Nc4ccccc4)CC3)ccc21 (configuration not stated) | > 10 | IC50 (HEPG2TOX_HILL_SLOPE 2.71, HEPG2TOX_R_SQUARED 0.817, PBLUC_HILL_SLOPE 3.44, PBLUC_R_SQUARED 0.218, read-out: LUCIFERASE INFECTION ASSAY - IC50): 6.51 µM
CNc1nc2cnc(Nc3cccc(C(F)(F)F)c3)cc2n1Cc1ccco1 | > 10 | IC50 (HEPG2TOX_HILL_SLOPE 2.71, HEPG2TOX_R_SQUARED 0.929, read-out: LUCIFERASE INFECTION ASSAY - IC50): > 10 µM
COc1cccc(Nc2nccc3[nH]c(-c4cccc(F)c4)cc23)c1 | 2.27 | IC50 (HEPG2TOX_HILL_SLOPE 2.76, HEPG2TOX_R_SQUARED 0.828, PBLUC_HILL_SLOPE 2.74, PBLUC_R_SQUARED 0.773, read-out: LUCIFERASE INFECTION ASSAY - IC50): 1.02 µM
Cc1cc(-c2ccccc2)[n+]2nc(N)c3ccccc3c2n1 | > 10 | IC50 (HEPG2TOX_HILL_SLOPE 2.74, HEPG2TOX_R_SQUARED 0.909, PBLUC_HILL_SLOPE 12.1, PBLUC_R_SQUARED 0.242, read-out: LUCIFERASE INFECTION ASSAY - IC50): 9.17 µM
CCOC(=O)c1cnn(-c2ccc(NC(=O)c3sc4nc5n(c(=O)c4c3C)CCC5)cc2)c1C | 2.97 | IC50 (HEPG2TOX_HILL_SLOPE 2.74, HEPG2TOX_R_SQUARED 0.98, PBLUC_HILL_SLOPE 1.74, PBLUC_R_SQUARED 0.848, read-out: LUCIFERASE INFECTION ASSAY - IC50): 0.838 µM
CCOc1ccc(OCC)c(S(=O)(=O)Oc2cccc3cccnc23)c1 | 7.66 | IC50 (HEPG2TOX_HILL_SLOPE 2.73, HEPG2TOX_R_SQUARED 0.737, PBLUC_HILL_SLOPE 3.92, PBLUC_R_SQUARED 0.473, read-out: LUCIFERASE INFECTION ASSAY - IC50): 4.37 µM
CS(=O)(=O)c1ccc(-c2ccc3ncc(-c4cccc(CO)c4)n3n2)cc1 | 3.89 | IC50 (HEPG2TOX_HILL_SLOPE 2.77, HEPG2TOX_R_SQUARED 0.883, PBLUC_HILL_SLOPE 15.3, PBLUC_R_SQUARED 0.0795, read-out: LUCIFERASE INFECTION ASSAY - IC50): 3.37 µM
CC(C)(C)c1ccc(-c2cc3[nH]c(-c4ccccc4)cc(=O)n3n2)cc1 | 3.76 | IC50 (HEPG2TOX_HILL_SLOPE 2.71, HEPG2TOX_R_SQUARED 0.618, PBLUC_HILL_SLOPE 3.36, PBLUC_R_SQUARED 0.487, read-out: LUCIFERASE INFECTION ASSAY - IC50): 1.95 µM
